The values below come from patent US12502434B2, “Compound comprising EZH2 inhibitor and E3 ligase binder and pharmaceutical composition for preventing or treating EZH2-associated disease comprising same as active ingredient” (DAEGU-GYEONGBUK MEDICAL INNOVATION FOUNDATION, priority 2019, dated 2025).

The target in the assay is T1, EZH2 protein in LS174T cells (Homo sapiens, UniProt Q15910).
T1 construct: endogenous in cells; host or cells: LS174T
Kind of assay: Proteolytic effect in colorectal cancer cells (Western blotting). The class given is cell-based. As to conditions: for Grade (percent value of the protein degradation when treated with 1 μM) / %, degradation at 1 uM: EZH2 protein, 72 hours; for Grade (percent value of the protein degradation when treated with 1 μM) / %, degradation at 1 uM / effect of degrading EZH2 protein when treated to colorectal cancer cells (in words): LS174T cells; for %, degradation at 1 uM: Western blotting; for EZH2 proteolytic effect by Western blotting (figure, in words): FIGS. 1 to 5. The procedure:
After 72 hours of the treatment, the cells were collected and lysed using RIPA buffer (50 mM Tris, pH 7.5, 150 mM NaCl, 1% Triton X-100, 0.1% SDS, […], 0.5% deoxycholate, and protease inhibitor cocktail), followed by sonication (30 sec on/30 sec off, 5 cycles) to prepare a cell lysate.
A general note: A western blot detects proteins with antibodies after separation by electrophoresis.

T1 sequence (Q15910 whole entry): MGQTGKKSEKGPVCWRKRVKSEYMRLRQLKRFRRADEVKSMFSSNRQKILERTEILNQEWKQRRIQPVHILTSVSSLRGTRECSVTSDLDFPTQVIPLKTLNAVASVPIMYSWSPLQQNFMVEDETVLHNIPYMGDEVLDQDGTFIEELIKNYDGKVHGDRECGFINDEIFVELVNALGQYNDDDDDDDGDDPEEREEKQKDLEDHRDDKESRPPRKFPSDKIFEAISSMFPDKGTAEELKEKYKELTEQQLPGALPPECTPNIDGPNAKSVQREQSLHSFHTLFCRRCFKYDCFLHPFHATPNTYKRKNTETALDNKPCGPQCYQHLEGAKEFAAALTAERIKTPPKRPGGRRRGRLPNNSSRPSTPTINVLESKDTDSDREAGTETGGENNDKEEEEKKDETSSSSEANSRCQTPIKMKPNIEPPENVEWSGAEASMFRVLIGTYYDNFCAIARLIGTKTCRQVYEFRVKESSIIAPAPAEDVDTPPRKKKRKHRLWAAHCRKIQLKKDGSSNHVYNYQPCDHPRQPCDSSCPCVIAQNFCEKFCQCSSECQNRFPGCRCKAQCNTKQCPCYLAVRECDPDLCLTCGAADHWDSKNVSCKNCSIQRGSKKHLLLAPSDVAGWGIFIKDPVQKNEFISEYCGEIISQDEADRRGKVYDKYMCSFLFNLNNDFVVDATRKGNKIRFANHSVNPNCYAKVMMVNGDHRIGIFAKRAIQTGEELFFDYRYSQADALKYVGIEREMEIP
T1 sequence (O75530 whole entry partner): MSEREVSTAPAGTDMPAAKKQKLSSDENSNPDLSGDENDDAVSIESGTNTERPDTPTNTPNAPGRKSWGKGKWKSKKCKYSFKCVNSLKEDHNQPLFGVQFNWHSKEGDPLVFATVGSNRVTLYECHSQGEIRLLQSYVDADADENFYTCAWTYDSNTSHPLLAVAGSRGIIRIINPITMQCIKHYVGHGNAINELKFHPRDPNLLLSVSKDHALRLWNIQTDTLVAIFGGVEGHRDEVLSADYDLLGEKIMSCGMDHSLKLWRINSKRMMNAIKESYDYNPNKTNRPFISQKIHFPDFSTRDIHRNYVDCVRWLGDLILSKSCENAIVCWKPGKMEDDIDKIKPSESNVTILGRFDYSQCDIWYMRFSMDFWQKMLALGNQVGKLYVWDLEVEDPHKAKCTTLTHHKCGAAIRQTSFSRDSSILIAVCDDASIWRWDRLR
T1 sequence (Q15022 whole entry partner): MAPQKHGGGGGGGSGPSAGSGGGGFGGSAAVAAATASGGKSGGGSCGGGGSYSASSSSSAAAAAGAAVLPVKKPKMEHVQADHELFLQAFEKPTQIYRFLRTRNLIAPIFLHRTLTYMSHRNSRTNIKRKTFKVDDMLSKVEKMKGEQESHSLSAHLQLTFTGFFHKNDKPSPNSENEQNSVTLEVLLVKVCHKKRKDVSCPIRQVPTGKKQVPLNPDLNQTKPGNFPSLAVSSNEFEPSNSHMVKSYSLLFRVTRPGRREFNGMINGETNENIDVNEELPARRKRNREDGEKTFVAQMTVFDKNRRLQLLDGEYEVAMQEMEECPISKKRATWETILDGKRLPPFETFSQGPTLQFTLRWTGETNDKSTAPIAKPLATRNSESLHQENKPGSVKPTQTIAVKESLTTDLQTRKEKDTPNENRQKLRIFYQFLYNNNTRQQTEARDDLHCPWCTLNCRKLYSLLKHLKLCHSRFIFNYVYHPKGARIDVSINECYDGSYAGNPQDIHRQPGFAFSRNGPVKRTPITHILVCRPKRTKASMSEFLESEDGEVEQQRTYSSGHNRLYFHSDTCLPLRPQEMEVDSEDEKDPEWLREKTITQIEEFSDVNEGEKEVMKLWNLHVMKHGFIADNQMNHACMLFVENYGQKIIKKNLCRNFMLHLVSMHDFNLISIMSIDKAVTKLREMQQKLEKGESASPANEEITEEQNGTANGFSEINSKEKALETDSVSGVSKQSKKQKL

As for `CCN(c1cc(-c2ccc(CN3CCN(CCNCCCCCCNc4cccc5c4C(=O)N(C4CCC(=O)NC4=O)C5=O)CC3)cc2)cc(C(=O)NCc2c(C)cc(C)[nH]c2=O)c1C)C1CCOCC1` (centres unmarked) [Example 21, N-((4,6-dimethyl-2-oxo-1,2-dihydropyridine-3-yl)methyl)-4′-((4-(2-((6-((2-(2,6-dioxopiperidine-3-yl)-1,3-dioxoisoindoline-4-yl)amino)hexyl)amino)ethyl)piperazine-1-yl)methyl)-5-(ethyl(tetrahydro-2H-pyran-4-yl)amino)-4-methyl-[1,1′-biphenyl]-3-carboxamide], the “Grade (percent value of the protein degradation when treated with 1 μM)” value is listed as “A (>75%)”; the “%, degradation at 1 uM” value came to 83.09%; the “EZH2 proteolytic effect by Western blotting (figure, in words)” value is “confirming the EZH2 proteolytic effect”; the “effect of degrading EZH2 protein when treated to colorectal cancer cells (in words)” value is “excellent effects”.
With `CCN(c1cc(-c2ccc(CN3CCN(CC(=O)N4CCC5(CCN(CCCCNc6cccc7c6C(=O)N(C6CCC(=O)NC6=O)C7=O)CC5)CC4)CC3)cc2)cc(C(=O)NCc2c(C)cc(C)[nH]c2=O)c1C)C1CCOCC1` (centres unmarked) [Example 33, N-((4,6-dimethyl-2-oxo-1,2-dihydropyridine-3-yl)methyl)-4′-((4-(2-(9-(4-((2-(2,6-dioxopiperidine-3-yl)-1,3-dioxoisoindoline-4-yl)amino)butyl)-3,9-diazaspiro[5.5]undecane-3-yl)-2-oxoethyl)piperazine-1-yl)methyl)-5-(ethyl(tetrahydro-2H-pyran-4-yl)amino)-4-methyl-[1,1′-biphenyl]-3-carboxamide], the “Grade (percent value of the protein degradation when treated with 1 μM)” value is recorded as “A (>75%)”; the “%, degradation at 1 uM” value worked out at 80.85%; the “EZH2 proteolytic effect by Western blotting (figure, in words)” value is reported as “confirming the EZH2 proteolytic effect”; the “effect of degrading EZH2 protein when treated to colorectal cancer cells (in words)” value was “excellent effects”.
Take `CCN(c1cc(-c2ccc(CN3CCN(CC(=O)NCCCCCOCCCOCC(=O)Nc4cccc5c4C(=O)N(C4CCC(=O)NC4=O)C5=O)CC3)cc2)cc(C(=O)NCc2c(C)cc(C)[nH]c2=O)c1C)C1CCOCC1` (centres unmarked) [Example 28, N-((4,6-dimethyl-2-oxo-1,2-dihydropyridine-3-yl)methyl)-4′-((4-(2-((5-(3-(2-((2-(2,6-dioxopiperidine-3-yl)-1,3-dioxoisoindoline-4-yl)amino)-2-oxoethoxy)propoxy)pentyl)amino)-2-oxoethyl)piperazine-1-yl)methyl)-5-(ethyl(tetrahydro-2H-pyran-4-yl)amino)-4-methyl-[1,1′-biphenyl]-3-carboxamide]: the “Grade (percent value of the protein degradation when treated with 1 μM)” value is recorded as “D (<25%)” and the “%, degradation at 1 uM” value is 0%.
As for `CCN(c1cc(-c2ccc(CN3CCN(CC(=O)NCCOc4cccc5c4C(=O)N(C4CCC(=O)NC4=O)C5=O)CC3)cc2)cc(C(=O)NCc2c(C)cc(C)[nH]c2=O)c1C)C1CCOCC1` (centres unmarked) [Example 5, N-((4,6-dimethyl-2-oxo-1,2-dihydropyridine-3-yl)methyl)-4′-((4-(2-((2-((2-(2,6-dioxopiperidine-3-yl)-1,3-dioxoisoindoline-4-yl)oxy)ethyl)amino)-2-oxoethyl)piperazine-1-yl)methyl)-5-(ethyl(tetrahydro-2H-pyran-4-yl)amino)-4-methyl-[1,1′-biphenyl]-3-carboxamide], the “Grade (percent value of the protein degradation when treated with 1 μM)” value was “D (<25%)” and the “%, degradation at 1 uM” value came to 0%.
For the compound `CCN(c1cc(-c2ccc(CN3CCN(CC(=O)NCCCOCCN[C@H](C(=O)N4C[C@H](O)C[C@H]4C(=O)NCc4ccc(-c5scnc5C)cc4)C(C)(C)C)CC3)cc2)cc(C(=O)NCc2c(C)cc(C)[nH]c2=O)c1C)C1CCOCC1` [Example 39, (2S,4R)-1-((S)-2-((2-(3-(2-(4-((3′-(((4,6-dimethyl-2-oxo-1,2-dihydropyridine-3-yl)methyl)carbamoyl)-5′-(ethyl(tetrahydro-2H-pyran-4-yl)amino)-4′-methyl-[1,1′-biphenyl]-4-yl)methyl)piperazine-1-yl)acetamido)propoxy)ethyl)amino)-3,3-dimethylbutanoyl)-4-hydroxy-N-(4-(4-methylthiazole-5-yl)benzyl)pyrrolidine-2-carboxamide], the “Grade (percent value of the protein degradation when treated with 1 μM)” value is recorded as “D (<25%)” and the “%, degradation at 1 uM” value worked out at 0%.
For `CCN(c1cc(-c2ccc(CN3CCN(CC(=O)NCCCCNc4cccc5c4C(=O)N(C4CCC(=O)NC4=O)C5=O)CC3)cc2)cc(C(=O)NCc2c(C)cc(C)[nH]c2=O)c1C)C1CCOCC1` (centres unmarked) [Example 3, N-((4,6-dimethyl-2-oxo-1,2-dihydropyridine-3-yl)methyl)-4′-((4-(2-((4-((2-(2,6-dioxopiperidine-3-yl)-1,3-dioxoisoindoline-4-yl)amino)butyl)amino)-2-oxoethyl)piperazine-1-yl)methyl)-5-(ethyl(tetrahydro-2H-pyran-4-yl)amino)-4-methyl-[1,1′-biphenyl]-3-carboxamide], the “Grade (percent value of the protein degradation when treated with 1 μM)” value is recorded as “D (<25%)” and the “%, degradation at 1 uM” value stood at 13.61%.
Taken in the same sequence, the figures for `CCN(c1cc(-c2ccc(CN3CCN(C(=O)CNCCCCCCNc4cccc5c4C(=O)N(C4CCC(=O)NC4=O)C5=O)CC3)cc2)cc(C(=O)NCc2c(C)cc(C)[nH]c2=O)c1C)C1CCOCC1` (centres unmarked) [Example 14, N-((4,6-dimethyl-2-oxo-1,2-dihydropyridine-3-yl)methyl)-4′-((4-((6-((2-(2,6-dioxopiperidine-3-yl)-1,3-dioxoisoindoline-4-yl)amino)hexyl)glycyl)piperazine-1-yl)methyl)-5-(ethyl(tetrahydro-2H-pyran-4-yl)amino)-4-methyl-[1,1′-biphenyl]-3-carboxamide] were “D (<25%)” and 6.21%.
On to `CCN(c1cc(-c2ccc(CN3CCN(C(=O)c4cn(CCCCCNc5cccc6c5C(=O)N(C5CCC(=O)NC5=O)C6=O)nn4)CC3)cc2)cc(C(=O)NCc2c(C)cc(C)[nH]c2=O)c1C)C1CCOCC1` (centres unmarked) [Example 32, N-((4,6-dimethyl-2-oxo-1,2-dihydropyridine-3-yl)methyl)-4′-((4-(1-(5-((2-(2,6-dioxopiperidine-3-yl)-1,3-dioxoisoindoline-4-yl)amino)pentyl)-1H-1,2,3-triazole-4-carbonyl)piperazine-1-yl)methyl)-5-(ethyl(tetrahydro-2H-pyran-4-yl)amino)-4-methyl-[1,1′-biphenyl]-3-carboxamide], for which the “Grade (percent value of the protein degradation when treated with 1 μM)” value was “C (25-50%)” and the “%, degradation at 1 uM” value is on record as 31.67%.
